Experimental findings from article PMC4774911, “Biochemical Screening of Five Protein Kinases from Plasmodium falciparum against 14,000 Cell-Active Compounds” (PLoS ONE, 2016) are described below.

Values joined by “and” are separate entries in the source; they are usually repeats but may differ in a detail not shown here. Identical values can stand only once.

Among the targets are JAK2 (Homo sapiens, UniProt O60674); RPS6KA1 (Homo sapiens, UniProt Q15418); MAPK6 (Homo sapiens, UniProt Q16659); MKNK1 (Homo sapiens, UniProt Q9BUB5); MAP4K4 (Homo sapiens, UniProt O95819); MAP2K3 (Homo sapiens, UniProt P46734); RIOK2 (Homo sapiens, UniProt Q9BVS4).
Holding throughout (experiment): biochemical
The target of a further assay is T1, NEK3 (Homo sapiens, UniProt P51956).
T1 sequence (P51956 1-506): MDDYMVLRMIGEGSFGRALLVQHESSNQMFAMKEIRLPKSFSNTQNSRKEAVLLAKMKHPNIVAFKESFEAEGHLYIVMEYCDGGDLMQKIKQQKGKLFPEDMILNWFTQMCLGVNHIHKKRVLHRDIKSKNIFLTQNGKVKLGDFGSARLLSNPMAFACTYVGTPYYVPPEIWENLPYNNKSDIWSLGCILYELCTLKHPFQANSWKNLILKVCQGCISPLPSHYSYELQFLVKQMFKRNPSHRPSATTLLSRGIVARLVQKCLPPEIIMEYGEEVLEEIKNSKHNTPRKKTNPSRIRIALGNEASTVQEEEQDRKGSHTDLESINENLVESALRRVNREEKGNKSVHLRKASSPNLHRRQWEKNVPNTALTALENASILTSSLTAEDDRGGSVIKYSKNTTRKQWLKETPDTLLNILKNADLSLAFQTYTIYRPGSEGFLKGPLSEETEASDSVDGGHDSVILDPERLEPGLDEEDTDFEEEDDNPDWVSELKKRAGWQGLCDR

In the next assay the target is T2, BMPR2 (Homo sapiens, UniProt Q13873).
T2 sequence (Q13873 1-1038): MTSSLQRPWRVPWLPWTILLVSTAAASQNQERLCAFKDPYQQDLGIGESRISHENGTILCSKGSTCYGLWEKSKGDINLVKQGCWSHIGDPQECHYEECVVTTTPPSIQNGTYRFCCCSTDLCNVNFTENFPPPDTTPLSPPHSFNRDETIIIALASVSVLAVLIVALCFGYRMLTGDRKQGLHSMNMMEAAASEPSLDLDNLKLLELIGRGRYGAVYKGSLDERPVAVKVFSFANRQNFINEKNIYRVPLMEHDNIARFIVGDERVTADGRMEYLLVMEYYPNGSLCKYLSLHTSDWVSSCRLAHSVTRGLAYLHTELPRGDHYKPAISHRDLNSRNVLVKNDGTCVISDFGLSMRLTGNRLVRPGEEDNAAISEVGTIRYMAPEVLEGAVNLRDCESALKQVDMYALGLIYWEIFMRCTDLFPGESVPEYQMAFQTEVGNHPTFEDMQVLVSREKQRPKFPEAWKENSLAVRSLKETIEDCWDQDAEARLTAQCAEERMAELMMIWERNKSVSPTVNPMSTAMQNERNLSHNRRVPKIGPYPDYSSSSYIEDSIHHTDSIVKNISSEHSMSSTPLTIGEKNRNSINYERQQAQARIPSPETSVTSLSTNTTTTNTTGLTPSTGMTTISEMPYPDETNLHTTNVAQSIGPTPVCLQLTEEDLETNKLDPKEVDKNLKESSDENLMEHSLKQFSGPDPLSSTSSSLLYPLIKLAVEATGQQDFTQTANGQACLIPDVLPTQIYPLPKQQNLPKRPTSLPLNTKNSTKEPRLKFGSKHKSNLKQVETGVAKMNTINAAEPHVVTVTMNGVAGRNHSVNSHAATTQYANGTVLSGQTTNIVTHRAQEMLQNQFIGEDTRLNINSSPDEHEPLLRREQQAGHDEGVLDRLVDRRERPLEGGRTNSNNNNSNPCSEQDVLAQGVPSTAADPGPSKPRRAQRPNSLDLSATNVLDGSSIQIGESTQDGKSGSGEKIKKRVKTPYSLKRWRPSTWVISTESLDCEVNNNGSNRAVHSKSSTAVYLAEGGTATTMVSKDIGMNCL

For another assay, the target named is T3, MARK4 (Homo sapiens, UniProt Q96L34).
T3 sequence (Q96L34 1-752): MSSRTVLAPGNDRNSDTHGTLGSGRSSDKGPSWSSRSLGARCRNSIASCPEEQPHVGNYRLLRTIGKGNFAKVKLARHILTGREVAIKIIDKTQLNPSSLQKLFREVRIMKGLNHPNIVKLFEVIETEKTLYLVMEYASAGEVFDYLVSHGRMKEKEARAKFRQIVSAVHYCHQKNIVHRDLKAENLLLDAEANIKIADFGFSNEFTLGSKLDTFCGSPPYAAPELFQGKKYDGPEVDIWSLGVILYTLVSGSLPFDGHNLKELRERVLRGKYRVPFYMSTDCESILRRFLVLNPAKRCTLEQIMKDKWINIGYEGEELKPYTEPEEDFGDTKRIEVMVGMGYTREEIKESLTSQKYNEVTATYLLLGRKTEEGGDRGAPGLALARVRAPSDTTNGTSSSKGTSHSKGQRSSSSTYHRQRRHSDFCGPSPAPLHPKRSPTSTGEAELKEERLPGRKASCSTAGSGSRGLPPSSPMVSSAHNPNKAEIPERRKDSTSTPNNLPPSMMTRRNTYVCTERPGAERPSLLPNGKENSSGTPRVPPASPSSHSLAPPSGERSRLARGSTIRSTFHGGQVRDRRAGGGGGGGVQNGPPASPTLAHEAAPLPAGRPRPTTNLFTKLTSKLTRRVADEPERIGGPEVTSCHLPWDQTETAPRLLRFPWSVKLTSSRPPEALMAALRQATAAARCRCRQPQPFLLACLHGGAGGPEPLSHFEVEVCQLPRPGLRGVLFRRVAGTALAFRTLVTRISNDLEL

MAP4K4, sequence (O95819 whole entry): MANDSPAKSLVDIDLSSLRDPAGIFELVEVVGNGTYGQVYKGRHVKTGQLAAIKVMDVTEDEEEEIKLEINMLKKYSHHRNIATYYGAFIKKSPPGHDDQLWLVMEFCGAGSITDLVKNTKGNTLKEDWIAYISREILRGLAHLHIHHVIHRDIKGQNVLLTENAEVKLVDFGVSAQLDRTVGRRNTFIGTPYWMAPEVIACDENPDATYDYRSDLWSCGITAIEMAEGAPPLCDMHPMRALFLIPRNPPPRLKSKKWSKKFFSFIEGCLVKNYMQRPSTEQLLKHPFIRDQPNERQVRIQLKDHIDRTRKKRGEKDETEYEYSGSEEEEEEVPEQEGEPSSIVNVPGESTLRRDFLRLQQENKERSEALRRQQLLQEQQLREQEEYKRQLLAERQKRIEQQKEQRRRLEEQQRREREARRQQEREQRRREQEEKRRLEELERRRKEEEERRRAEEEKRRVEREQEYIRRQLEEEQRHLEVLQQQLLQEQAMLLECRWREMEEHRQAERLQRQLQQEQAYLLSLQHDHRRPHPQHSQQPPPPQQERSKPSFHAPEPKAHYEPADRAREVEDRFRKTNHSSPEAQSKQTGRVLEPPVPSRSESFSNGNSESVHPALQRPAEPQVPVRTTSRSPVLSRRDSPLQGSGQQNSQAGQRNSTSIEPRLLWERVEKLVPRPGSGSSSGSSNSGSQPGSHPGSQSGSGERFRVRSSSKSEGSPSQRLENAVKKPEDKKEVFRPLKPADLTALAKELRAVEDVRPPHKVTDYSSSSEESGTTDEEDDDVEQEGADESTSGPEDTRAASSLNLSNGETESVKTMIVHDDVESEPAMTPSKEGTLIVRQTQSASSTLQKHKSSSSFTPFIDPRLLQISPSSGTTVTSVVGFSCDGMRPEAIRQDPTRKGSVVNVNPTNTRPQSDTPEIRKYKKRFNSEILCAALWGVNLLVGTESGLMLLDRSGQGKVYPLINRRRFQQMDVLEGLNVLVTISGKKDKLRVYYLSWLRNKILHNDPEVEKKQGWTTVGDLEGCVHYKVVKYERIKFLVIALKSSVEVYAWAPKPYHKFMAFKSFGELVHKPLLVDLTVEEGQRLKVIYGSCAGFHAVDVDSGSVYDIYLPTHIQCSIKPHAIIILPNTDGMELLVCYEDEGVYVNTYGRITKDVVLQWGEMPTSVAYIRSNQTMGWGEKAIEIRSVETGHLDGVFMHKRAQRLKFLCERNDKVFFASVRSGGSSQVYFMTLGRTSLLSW
JAK2, sequence (O60674 whole entry): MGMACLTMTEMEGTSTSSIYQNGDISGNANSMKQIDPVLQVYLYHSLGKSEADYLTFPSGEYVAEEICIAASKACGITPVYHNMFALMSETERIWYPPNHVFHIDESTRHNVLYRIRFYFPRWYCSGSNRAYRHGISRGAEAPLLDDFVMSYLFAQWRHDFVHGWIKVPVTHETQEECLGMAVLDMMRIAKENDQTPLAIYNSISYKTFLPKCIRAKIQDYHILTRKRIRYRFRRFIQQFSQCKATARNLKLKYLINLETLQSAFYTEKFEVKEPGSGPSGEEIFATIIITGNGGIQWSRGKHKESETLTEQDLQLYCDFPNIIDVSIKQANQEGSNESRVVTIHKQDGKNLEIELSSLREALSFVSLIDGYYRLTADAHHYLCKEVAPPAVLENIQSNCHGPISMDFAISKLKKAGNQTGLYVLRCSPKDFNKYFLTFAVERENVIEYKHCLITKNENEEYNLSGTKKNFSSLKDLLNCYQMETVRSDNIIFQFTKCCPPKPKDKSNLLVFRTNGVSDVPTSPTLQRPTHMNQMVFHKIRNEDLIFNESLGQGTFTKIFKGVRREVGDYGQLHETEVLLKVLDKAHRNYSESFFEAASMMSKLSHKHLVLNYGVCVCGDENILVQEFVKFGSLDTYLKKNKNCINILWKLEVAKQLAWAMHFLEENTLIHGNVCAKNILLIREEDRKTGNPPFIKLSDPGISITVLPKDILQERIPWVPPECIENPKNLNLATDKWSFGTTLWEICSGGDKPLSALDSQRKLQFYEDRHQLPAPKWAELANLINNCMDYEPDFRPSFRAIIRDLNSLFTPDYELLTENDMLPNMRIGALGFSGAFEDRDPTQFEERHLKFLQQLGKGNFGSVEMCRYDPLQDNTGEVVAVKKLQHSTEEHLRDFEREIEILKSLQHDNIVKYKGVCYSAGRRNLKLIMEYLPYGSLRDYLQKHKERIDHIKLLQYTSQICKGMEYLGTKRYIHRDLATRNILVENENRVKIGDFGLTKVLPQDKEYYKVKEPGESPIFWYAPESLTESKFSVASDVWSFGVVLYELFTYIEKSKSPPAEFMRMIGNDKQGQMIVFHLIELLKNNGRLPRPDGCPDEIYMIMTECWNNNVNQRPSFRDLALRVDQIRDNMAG
MAPK6, sequence (Q16659 whole entry): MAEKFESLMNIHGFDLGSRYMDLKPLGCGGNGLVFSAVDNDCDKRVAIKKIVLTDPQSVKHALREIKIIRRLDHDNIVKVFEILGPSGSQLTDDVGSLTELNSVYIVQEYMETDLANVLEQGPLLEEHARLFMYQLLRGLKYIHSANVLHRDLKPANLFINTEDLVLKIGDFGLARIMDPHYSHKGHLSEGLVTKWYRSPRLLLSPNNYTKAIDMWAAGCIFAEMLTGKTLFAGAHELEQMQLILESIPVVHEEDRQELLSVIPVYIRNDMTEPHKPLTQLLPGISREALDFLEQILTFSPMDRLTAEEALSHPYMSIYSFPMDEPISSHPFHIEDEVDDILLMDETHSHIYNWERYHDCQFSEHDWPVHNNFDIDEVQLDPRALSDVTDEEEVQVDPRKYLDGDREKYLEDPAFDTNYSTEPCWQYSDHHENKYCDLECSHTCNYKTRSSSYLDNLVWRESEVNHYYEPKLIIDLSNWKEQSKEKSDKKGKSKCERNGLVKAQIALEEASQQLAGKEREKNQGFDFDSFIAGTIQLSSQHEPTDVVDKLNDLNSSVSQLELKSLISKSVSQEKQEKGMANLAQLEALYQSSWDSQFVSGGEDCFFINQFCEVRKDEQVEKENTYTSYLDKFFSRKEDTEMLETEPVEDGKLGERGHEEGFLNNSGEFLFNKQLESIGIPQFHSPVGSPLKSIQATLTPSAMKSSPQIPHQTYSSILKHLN
MKNK1, sequence (Q9BUB5 whole entry): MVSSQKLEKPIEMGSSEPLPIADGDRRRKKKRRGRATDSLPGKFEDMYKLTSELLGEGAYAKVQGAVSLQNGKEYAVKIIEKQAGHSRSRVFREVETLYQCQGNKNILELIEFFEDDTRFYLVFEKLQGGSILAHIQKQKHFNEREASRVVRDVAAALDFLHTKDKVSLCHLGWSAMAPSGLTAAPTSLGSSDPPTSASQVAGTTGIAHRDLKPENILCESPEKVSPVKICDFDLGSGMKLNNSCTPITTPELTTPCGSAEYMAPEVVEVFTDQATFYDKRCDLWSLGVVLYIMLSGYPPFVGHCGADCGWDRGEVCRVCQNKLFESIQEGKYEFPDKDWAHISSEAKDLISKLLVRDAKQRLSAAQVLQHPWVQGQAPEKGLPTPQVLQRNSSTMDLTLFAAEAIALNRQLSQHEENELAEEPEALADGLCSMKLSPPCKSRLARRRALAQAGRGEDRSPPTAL
MAP2K3, sequence (P46734 whole entry): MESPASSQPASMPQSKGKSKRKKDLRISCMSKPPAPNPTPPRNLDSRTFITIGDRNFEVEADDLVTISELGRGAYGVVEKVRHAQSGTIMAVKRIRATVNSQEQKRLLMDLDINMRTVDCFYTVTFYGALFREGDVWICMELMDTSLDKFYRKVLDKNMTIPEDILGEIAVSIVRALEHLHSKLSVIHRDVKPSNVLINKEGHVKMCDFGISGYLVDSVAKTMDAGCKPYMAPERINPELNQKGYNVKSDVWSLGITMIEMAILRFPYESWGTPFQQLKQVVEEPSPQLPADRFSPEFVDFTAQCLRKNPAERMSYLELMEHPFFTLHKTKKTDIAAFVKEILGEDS
RPS6KA1, sequence (Q15418 whole entry): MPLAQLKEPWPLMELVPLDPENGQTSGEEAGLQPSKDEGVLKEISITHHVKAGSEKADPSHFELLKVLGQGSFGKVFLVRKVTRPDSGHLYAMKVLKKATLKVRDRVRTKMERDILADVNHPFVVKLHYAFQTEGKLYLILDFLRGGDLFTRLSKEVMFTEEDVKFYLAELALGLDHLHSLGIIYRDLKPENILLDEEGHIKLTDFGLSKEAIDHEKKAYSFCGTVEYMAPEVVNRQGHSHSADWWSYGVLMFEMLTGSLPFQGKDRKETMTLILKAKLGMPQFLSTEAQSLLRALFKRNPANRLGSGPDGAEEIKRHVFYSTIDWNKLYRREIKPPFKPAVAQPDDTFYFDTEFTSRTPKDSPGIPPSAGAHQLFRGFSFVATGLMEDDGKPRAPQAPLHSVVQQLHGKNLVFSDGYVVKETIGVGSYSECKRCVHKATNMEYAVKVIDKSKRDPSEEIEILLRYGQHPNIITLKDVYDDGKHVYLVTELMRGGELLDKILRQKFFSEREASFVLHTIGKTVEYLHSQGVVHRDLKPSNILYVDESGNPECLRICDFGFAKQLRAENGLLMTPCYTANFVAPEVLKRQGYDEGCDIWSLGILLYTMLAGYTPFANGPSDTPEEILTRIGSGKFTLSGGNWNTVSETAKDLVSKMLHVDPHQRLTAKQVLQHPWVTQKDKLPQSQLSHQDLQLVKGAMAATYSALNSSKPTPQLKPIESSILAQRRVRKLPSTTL

With `CN1CCN(c2ccc(Nc3ncc(C#N)c(Nc4ccccc4C(N)=O)n3)cc2)CC1.Cl` [TCMDC-134116], the IC50 is 510 nM and 330 nM against JAK2; 150 nM at RPS6KA1; 1100 nM on NEK3; 4.9 µM and 6.7 µM against BMPR2.

Turning to `Cl.NCC1(c2nc(-c3ccc(Cl)c(O)c3)c(-c3ccncc3)[nH]2)CCCCC1` [TCMDC-141154], the 50% inhibitory concentration (IC50) against MAPK6 was above 20000 nM; on MKNK1, above 20 µM; against JAK2, above 20000 nM; against MARK4 it was above 20 µM; at RPS6KA1 it was above 20000 nM; against MAP4K4, 1500 nM and 950 nM. The IC50 at MAP2K3 was above 20 µM; on NEK3, above 20000 nM; at RIOK2, above 20 µM.

Turning to `CN(C)CC(O)COc1ccc(Nc2ncc([N+](=O)[O-])c(Nc3ccccc3O)n2)cc1.O=C(O)C(F)(F)F` (centres unmarked) [TCMDC-141399], the IC50 on MAPK6 is 320 nM; at MKNK1 it was above 20 µM; at MARK4, 12 µM and 7.6 µM; at MAP4K4, 1800 nM and 1200 nM; on MAP2K3, above 20 µM; at BMPR2, above 20 µM. The compound further registered a half-inhibitory concentration (IC50) on RIOK2 above 20 µM.
